3 compounds from patent US20240199755A1, “ANTAGONISTS AND AGONISTS OF THE TRANSFERRIN RECEPTOR-2 FOR USE IN THE TREATMENT OF DISEASES OF THE BONE” (Kymab Limited, priority 2018, published 2024) can be followed below.

Entries after “also recorded” stand apart in the source; their conditions may differ.

Test [1] deals with trauma-induced heterotopic ossification. In words: Trauma-potentiated (drop-weight) heterotopic ossification model. The format is in vivo. The note with it: WT mice; after three weeks; Tfr2-ECD single dose, palovarotene or ibuprofen daily. The protocol: For systemic Tfr2-ECD treatment, WT mice were treated every other day with Tfr2-ECD intraperitoneally for two weeks. Mice received 250 μg Tfr2-ECD (10 mg/kg BW) per injection for the first 10 days after BMP-2/matrigel injection into the muscle and 125 μg per injection (5 mg/kg BW) for the remaining time. This experiment was performed once with 8-10 mice per group. Drop-weight HO: This experiment was performed according to Liu et al. with minor modifications^65. Female 10-12-week-old WT mice were anesthetized and placed on a ridge of a plastic container over which the right leg was bent so the femur was lying horizontally. Mice received an injection of 1 μg BMP-2 mixed in 50 μl matrigel. Afterwards, a stainless-steel ball of 16 g (16 mm diameter) was dropped from a distance of 80 cm height onto the quadriceps muscle. Mice either received a single dose of 1 μg Tfr2-ECD, which was co-injected with the BMP-2/matrigel mixture, or palovarotene (Hycultec), which was administered daily by oral gavage. Palovarotene was dissolved in DMSO and diluted 1:4 with corn oil. Mice received palovarotene at a dose of 100 μg/mouse for the first five days and 50 μg/mouse for the remainder of the experiment (days 621). One group of mice received ibuprofen via the drinking water at a dose of […] which was changed every other day^66. […]

Test [2] deals with T1, Tfr2-ECD (Mus musculus, UniProt Q9JKX3).
T1 construct: full-length extracellular domain (ECD, aa 103-798) of murine Tfr2; His (N); MBP (N); c3 (protease site between MBP and ECD) (N); made in house; host or cells: Sf9 insect cells (baculovirus, pOCC211-Tfr2-ECD)
T1 sequence (Q9JKX3 103-798): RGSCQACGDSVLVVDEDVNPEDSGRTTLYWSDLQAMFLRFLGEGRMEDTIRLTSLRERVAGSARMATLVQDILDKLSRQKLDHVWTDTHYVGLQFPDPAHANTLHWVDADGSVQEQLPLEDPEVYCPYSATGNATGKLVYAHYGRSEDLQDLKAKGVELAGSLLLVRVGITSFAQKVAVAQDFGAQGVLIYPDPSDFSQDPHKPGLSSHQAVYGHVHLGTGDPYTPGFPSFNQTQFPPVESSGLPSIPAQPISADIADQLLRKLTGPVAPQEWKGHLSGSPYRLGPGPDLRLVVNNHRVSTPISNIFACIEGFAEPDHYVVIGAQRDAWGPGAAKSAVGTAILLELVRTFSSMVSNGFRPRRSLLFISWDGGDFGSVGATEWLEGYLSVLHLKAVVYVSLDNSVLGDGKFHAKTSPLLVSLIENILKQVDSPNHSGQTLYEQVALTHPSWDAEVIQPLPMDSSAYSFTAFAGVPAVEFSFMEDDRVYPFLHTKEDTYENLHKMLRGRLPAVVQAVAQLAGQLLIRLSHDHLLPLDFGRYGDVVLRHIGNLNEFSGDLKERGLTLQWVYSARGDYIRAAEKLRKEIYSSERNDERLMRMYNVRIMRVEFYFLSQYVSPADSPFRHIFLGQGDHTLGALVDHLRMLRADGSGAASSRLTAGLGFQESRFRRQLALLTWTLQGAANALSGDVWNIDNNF
Nature of the test: SPR binding of holo-Tf and BMP receptors to Tfr2-ECD immobilized on the sensor chip. Set-up: species or system murine. The note with it: 200 nM BMP receptors; binding level normalized to molecular weight. How it is done:
For this purpose, Tfr2-ECD is immobilized on a Series S Sensor Chip C1 (GE Healthcare), by means of coupling the amino groups at 25° C. The carboxyl groups on the chip surface are activated for 7 minutes using a mixture of 196 mM 1-ethyl-3-(3-dimethylaminopropyl) carbodiimide-hydrochloride and 50 mM n-hydroxysuccinimide at a flow rate of 10 μl/min. Subsequently, 5 μg/ml Tfr2-ECD, diluted with sodium acetate buffer (pH 4.5), is injected at a flow rate of 5 μl/min up to a relative occupancy of 200 RU. Non-reacted groups are inactivated by injecting 1 M thanolamine-HCl (pH 8.5) for 7 minutes at a flow rate of 10 μl/min. In order to prepare a reference surface, the same procedure is carried out but without Tfr2-ECD being injected.
The binding assays are carried out at 37° C. at a flow rate of 30 μl/min. Each analyte is diluted by a running buffer (HBS-P, pH 7.4 together with 50 nM FeCl3). […] The values of the binding level are read out, relative to the baseline, 10 s before the end of the injection and are corrected with respect to the molar mass. […] The binding parameters are determined using the Biacore™ T100 evaluation software 2.03. […]
For binding analysis, an injection of analyte for 240 s or 300 s over a Tfr2-ECD surface was followed by 1000 s dissociation. The values of the binding levels were recorded from referenced signals 10 s before the end of injection relative to baseline response. […]
In general terms: Surface plasmon resonance follows binding to a sensor surface in real time, without labels.

Test [3] has as its system BMP-2-induced heterotopic ossification. Nature of the test: BMP-2-induced heterotopic ossification (HO) mouse model. The format is in vivo, mice. The settings on record: WT mice; day 8; systemic treatment; Safranin O staining. The protocol:
Male and female C57BL/6 mice are used for the HO model. The HO is triggered by injecting BMP-2 into the muscle (Wosczyna et al. 2012).
All the mice are fed with standard feed and water ad libitum and are kept in groups of five mice per cage. The mice are exposed to a 12-hour light/dark cycle and air cooling to 23° C. (no special pathogen-free room). Enrichment is provided in the form of cardboard houses and bedding material. The mice are randomly divided into the different treatment groups and the assays are subsequently carried out as blind experiments.
The HO is examined by means of treatment using 2.5 μl of a 1 mg/ml recombinant BMP-2 solution (Thermo Fisher Scientific) or 2.5 μl of a 1 mg/ml Tfr2-ECD mixed with 47.5 μl Matrigel (BD Bioscience) at 0° C. For combination treatment, 2.5 of a 1 mg/ml recombinant BMP-2 solution is mixed with 2.5 μl of a 1 mg/ml Tfr2-ECD and 45 μl Matrigel. The Matrigel mixtures are injected into the musculus tibialis anterior of 10-week-old female wild-type mice. The legs are examined after two weeks.
The bone microarchitecture is analyzed using vivaCT40 (Scanco Medical, Switzerland). The entire lower leg bones are measured at a resolution of 10.5 μm using X-rays of 70 kVp, […] and at an integration time of 200 s. Predefined scripts from Scanco are used to analyze the bone (#1). […]

For the compound `CC(C)Cc1ccc(C(C)C(=O)O)cc1` (centres unmarked) [ibuprofen], in test [1], the “New bone formation in the muscle (trauma-induced HO, μCT)” value is “did not prevent; also recorded: did not significantly reduce”.

Turning to “BMPR-IA: BMP receptor type IA (R&D Systems), positive control in the BMP-2 ELISA”, in test [2], the “Binding response of BMPRs to Tfr2-ECD compared with BMPs” value is recorded as “weaker than BMPs”.

Turning to `CC1(C)CCC(C)(C)c2cc(Cn3cccn3)c(/C=C/c3ccc(C(=O)O)cc3)cc21` [palovarotene, reference compound], in test [3], the “Number of chondrocytes (chondrogenic phase of HO)” value was “suppressed” and the “Production of cartilage (chondrogenic phase of HO)” value is “suppressed”. The “New bone formation in the muscle (trauma-induced HO, μCT)” value in test [1] is “comparable”.
